Test results reported in PubChem BioAssay (NCI).
Where “and” joins values, the source holds several entries; their conditions need not be identical. Equal entries are not always repeated.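 All cell lines were grown in 96-well plates and treated with compound for 48 hours. GI50 marks 50% less growth. TGI: total growth inhibition.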 Where a SMILES comes first, the peptide text is derived from it. The star is where a group is joined. Boc = CC(C)(C)OC(=O)*

Columns and labels:
Assay in all cases: inhibition of tumour cell growth, NCI panel, 48 h
LOX IMVI melanoma = system: LOX IMVI melanoma
SNB-75 CNS = system: SNB-75 CNS
KM12 colon = system: KM12 colon
CCRF-CEM leukemia = system: CCRF-CEM leukemia
SF-539 CNS = system: SF-539 CNS
SK-MEL-2 melanoma = system: SK-MEL-2 melanoma
SK-OV-3 ovarian = system: SK-OV-3 ovarian
TK-10 renal = system: TK-10 renal
EKVX NSCLC = system: EKVX NSCLC
HS 578T breast = system: HS 578T breast

Row | SMILES | TGI (LOX IMVI melanoma) | TGI (SNB-75 CNS) | TGI (KM12 colon) | TGI (CCRF-CEM leukemia) | TGI (SF-539 CNS) | TGI (SK-MEL-2 melanoma) | TGI (SK-OV-3 ovarian) | TGI (TK-10 renal) | TGI (EKVX NSCLC) | GI50 (LOX IMVI melanoma) | GI50 (SNB-75 CNS) | GI50 (KM12 colon) | GI50 (CCRF-CEM leukemia) | GI50 (SK-MEL-2 melanoma) | GI50 (SK-OV-3 ovarian) | GI50 (TK-10 renal) | GI50 (EKVX NSCLC) | GI50 (HS 578T breast) | TGI (HS 578T breast) | GI50 (SF-539 CNS)
1 | Cn1c2ccccc2c2ncc3[nH]c4ccccc4c3c21 | 56.2 µM | 35.6 µM | 33.9 µM | > 100 µM | 32.4 µM | > 100 µM | 80.8 µM | 45.1 µM | 65.6 µM |  |  |  |  |  |  |  |  |  |  | 
2 | CCCCCCCN=C(N)c1ccc(N2CCN(c3ccc(C(N)=NCCCCCCC)cc3)CC2)cc1 | 19.1 µM | 7.67 µM | > 100 µM | > 100 µM |  | > 100 µM | > 26.4 µM | 1.93 µM | 2.94 µM | 1.52 µM | 2.75 µM | > 100 µM | 1.1 µM | 1.99 µM | 0.735 µM | 0.146 µM | 0.175 µM |  |  | 
3 | COC(=O)c1ccc(-c2c(C#N)[n+](=O)c3cc(Cl)c(Cl)cc3n2[O-])cc1 | 5.37 µM | 39.8 µM | 51.3 µM | 7.79 µM | 40.5 µM |  |  | 95.1 µM | 47.8 µM | 2.38 µM | 20.2 µM | 20.9 µM | 2.85 µM |  |  | 33.6 µM | 21.7 µM | 25.7 µM | 92.2 µM | 19.7 µM
4 | COc1cccc2c1C(=O)c1c(O)c3c(c(O)c1C2=O)C[C@@](O)(/C(C)=N/NC(=O)c1ccc(Cl)cc1)C[C@@H]3OC1CC(N)C(O)C(C)O1 (some centres undefined) |  | 0.552 µM | 2.44 µM | 2.32 µM | 0.747 µM |  | 13.8 µM | 0.723 µM |  |  | 0.102 µM | 0.326 µM | 0.0903 µM |  | 0.481 µM | 0.178 µM |  | 0.369 µM | 2.52 µM | 0.21 µM
5 | CCN(CC)CCSc1c2ccccc2nc2c(OC)ccc(OC)c12 | > 41.2 µM | > 70 µM | 16.8 µM | > 68.9 µM | > 33.9 µM | > 23 µM | 69.2 µM | 17.3 µM | > 100 µM |  |  |  |  |  |  |  |  |  |  | 
6 | CSc1ccccc1C#C/C=C\C#Cc1ccccc1N | 25.2 µM | 81 µM | 10.4 µM | > 100 µM | 23.6 µM | > 100 µM | 96.5 µM |  | 57.4 µM | 9.52 µM | 36.3 µM | 2.92 µM | 4.98 µM | 6.13 µM | 31.4 µM |  | 16.9 µM |  |  | 7.2 µM
7 | Clc1nc(Cl)nc(Nc2cccc3ccccc23)n1 | > 100 µM | > 100 µM | > 100 µM | > 100 µM | > 100 µM | > 100 µM | > 100 µM | > 100 µM |  | 33.5 µM | > 100 µM | 93.7 µM | 33.4 µM | 80.7 µM | > 100 µM | > 100 µM |  | > 100 µM | > 100 µM | > 100 µM
8 | COC(=O)C(C)NC(=O)C(CCSC)NC(=O)C(Cc1ccccc1)NC(=O)OC(C)(C)C (stereo not drawn) (Boc-Phe-Met-Ala-OMe; configuration not given here) | 43 µg/mL and > 100 µM | > 100 µM | 51.1 µg/mL and > 100 µM |  | > 100 µM | > 100 µM | > 100 µM |  |  | 20.3 µg/mL | 99.7 µg/mL | 22.4 µg/mL | 2.63 µg/mL |  |  | 4.41 µg/mL |  |  | > 100 µM | 
9 | CC(C)(C)[Si](C)(C)OC1C(=O)C[C@H]2CCCC[C@@H]12 (some centres undefined) | > 100 µM | > 100 µM | > 100 µM | > 100 µM | > 100 µM | > 100 µM | > 100 µM | > 100 µM | > 100 µM |  |  |  |  |  |  |  |  |  |  | 
10 | COc1ccc2c(c1)c[n+](C)c1c3cc(OC)c(OC)cc3ccc21 | 2.65 µM and 4.96 µM | 20 µM | 2.79 µM and 9.42 µM | > 100 µM and 12.4 µM | 3.5 µM and 13.9 µM | 6.12 µM and 16.9 µM | 29.4 µM | 5.37 µM and 24 µM | 4.52 µM and 42.3 µM |  | 6.66 µM | 1.21 µM and 2.88 µM | 0.559 µM and 1.42 µM | 2.3 µM and 7.11 µM |  | 2.13 µM and 11.2 µM | 1.5 µM and 11.3 µM |  |  | 1.95 µM and 6.15 µM
11 | COc1ccc(C(O)(CCC(C)C)C(CN2CCOCC2)c2ccc(Cl)cc2)cc1 (centres undefined) | 28 µM | 35.2 µM | 26.2 µM | 34.8 µM | 30.3 µM |  | 75.8 µM | 31.3 µM |  | 14.5 µM | 13 µM | 11.4 µM | 13.6 µM |  | 21.8 µM | 16.7 µM |  | 15.2 µM | 40.4 µM | 15.4 µM
12 | COc1ccc(-c2cc(/C=C/C(=O)c3ccc(OC)c(OC)c3)[nH]n2)cc1 |  | 3.84 µM | 3.11 µM | 4.14 µM | 2.61 µM |  | 17.1 µM | 4.31 µM |  |  | 1.55 µM | 1.38 µM | 1.34 µM |  | 5.56 µM | 2.11 µM |  | 3.38 µM | 29 µM | 1.27 µM
13 | CC(=O)N1CCC(=O)/C(=C/c2ccccc2)C1 | 32.9 µM | > 100 µM | 51.6 µM |  | > 100 µM |  | > 100 µM | > 100 µM |  |  |  |  |  |  |  |  |  |  |  | 
14 | C[Si](C)(C)/C(I)=C/CO | 42.1 µM | > 100 µM | 60.8 µM | 48.2 µM | 39.9 µM | 38.4 µM | > 100 µM | 96.9 µM | 71.7 µM |  |  |  |  |  |  |  |  |  |  | 
15 | CS/C(=C(\S)c1ccccc1)c1ccccc1 | > 100 µM | > 100 µM | > 100 µM |  | > 100 µM | > 100 µM | > 100 µM | > 100 µM | > 100 µM |  |  |  |  |  |  |  |  |  |  | 
16 | CCN(Cc1ccc(F)cc1)c1ccc(CO)c(Br)c1 | 26.1 µM | 39.8 µM | 63.1 µM | 43.9 µM | 29.4 µM | 12.6 µM | 21.9 µM | 0.101 µM |  | 11.6 µM | 6.28 µM | 23.4 µM | 14.6 µM | 0.96 µM | 5.18 µM | 0.021 µM |  | 13.5 µM | 46.1 µM | 15 µM
17 | O=c1[nH]c2ccc(O)cc2o1 |  | > 100 µM | > 100 µM | > 100 µM | > 100 µM |  | > 100 µM | > 100 µM | > 100 µM |  |  |  |  |  |  |  |  |  | > 100 µM | 
18 | Cc1ccc(S(=O)OCc2c(C)c(C)c(COS(=O)c3ccc(C)cc3)c(C)c2C)cc1 (centres undefined) | > 100 µM | > 100 µM | > 100 µM |  | > 100 µM |  | > 100 µM | > 100 µM | > 100 µM |  |  |  |  |  |  |  |  |  |  | 
19 | Cc1nc2cc(Nc3nc(Nc4ccc(F)cc4)nc(-c4cccs4)n3)ccc2n1Cc1ccccc1 | 5.85 µM | > 100 µM | 16.7 µM | 7.21 µM | 12.9 µM | 5.44 µM | > 100 µM |  |  | 2.36 µM | 2.94 µM | 3.12 µM | 2.46 µM | 2.36 µM | 33.4 µM |  |  | 3.81 µM | > 100 µM | 3.27 µM
20 | O=C1CCC(=O)c2c1c(O)c1ccncc1c2O | 27.4 µM | 34.7 µM | 38.9 µM | 39.4 µM | 29 µM | 26.4 µM | 98.8 µM | 33 µM | 47.6 µM |  |  |  |  |  |  |  |  |  |  | 
21 | CCOC(=O)c1ccc(N=Nc2cc(C(=O)OCC)ccc2O)cc1 | > 100 µM |  |  | > 100 µM | > 100 µM |  | > 100 µM | > 100 µM | 41.8 µM |  |  |  |  |  |  |  |  |  |  | 
22 | C[Si](C)(C)/C(Br)=C\CCN1C(=O)CCC1=O | > 100 µM | > 100 µM | > 100 µM | > 100 µM | > 100 µM | > 100 µM | > 100 µM | > 100 µM | > 100 µM |  |  |  |  |  |  |  |  |  |  | 
23 | COC(=O)c1s/c(=N\C(=S)N(C)C)n(-c2ccc(Cl)cc2)c1C(=O)OC | > 100 µM | > 10 µM | > 100 µM | > 100 µM | > 100 µM | > 100 µM | > 10 µM | > 100 µM | > 100 µM |  |  |  |  |  |  |  |  |  |  | 
24 | COc1ccc(-c2nsc3c2NC(=O)CC3c2cccc(OC)c2)cc1 (centres undefined) | > 100 µM |  | > 100 µM | > 100 µM | 6.7 µM | 64.1 µM | 7.43 µM |  |  | 0.689 µM | 1.3 µM | 0.505 µM | 2.08 µM | 3.81 µM | 1.45 µM |  |  | 1.34 µM | 16.9 µM | 1.87 µM
25 | COC12OCCN(C)C1=CC(=O)C1=NNC(C)C12 (centres undefined) | > 100 µM | > 100 µM | > 100 µM | > 100 µM | > 100 µM |  | > 100 µM | > 100 µM | > 100 µM |  |  |  |  |  |  |  |  |  |  | 
26 | C[C@]12CCC(=O)C=C1CC[C@@H]1C2CC[C@]2(C)Nc3[nH]ncc3CC12 (some centres undefined) |  | > 100 µM | > 100 µM | > 100 µM | > 100 µM | > 100 µM | > 100 µM | > 100 µM | > 100 µM |  |  |  |  |  |  |  |  |  |  | 
27 | [N-]=[N+]=N/C1=C/CCCCC(=O)C1 | > 100 µM | > 100 µM |  | > 100 µM |  | > 100 µM | > 100 µM | > 100 µM | > 100 µM |  |  |  |  |  |  |  |  |  |  | 
28 | S=c1[nH]c2c(Cl)c(Cl)c(Cl)c(Cl)c2[nH]1 | 40.8 µM |  | 33.8 µM | 19.5 µM | 26.3 µM |  | 55.3 µM | 55.4 µM | 37.4 µM |  |  |  |  |  |  |  |  |  | 69.4 µM | 
29 | Nc1c(C(=O)c2ccccc2)cnn1-c1ccc(F)cc1 | > 25 µM | > 25 µM | > 25 µM | > 25 µM | > 25 µM | > 25 µM | > 25 µM | > 25 µM |  | > 25 µM | > 25 µM | > 25 µM | > 25 µM | > 25 µM | > 25 µM | > 25 µM |  | > 25 µM | > 25 µM | > 25 µM
